Where two headings read alike, the source gives them in different places.
Key:
[1] = biological target: SMARCA4 (Homo sapiens, UniProt P51532); experiment: HiBiT assay for protein degradation, Hela SMARCA4-HiBiT cells (A series); type: cell-based; design: fuse HiBiT to the carboxy terminus of SMARCA2 (Promega CS302365) or SMARCA4 (Promega CS3023225); host or cells: HeLa (CRISPR/Cas9 HiBiT knock-in); conditions: for DC50: read-out: SMARC A4 Hela HiBit DC50; for Dmax: read-out: SMARC A4 Hela HiBit Dmax(%)
Description: (§1) Hela cells were genetically modified via CRISPR/Cas9 to fuse HiBiT to the carboxy terminus of SMARCA2 (Promega CS302365) or SMARCA4 (Promega CS3023225). Cells were cultured in DMEM containing 10% FBS and 1% (Vol:Vol) penicillin-streptomycin. […] At the end of experiment, levels of SMARCA2 or SMARCA4 expression were assessed with Nano-Glo® HiBiT Lytic Detection Assay (Promega N3050). IC50 was obtained using the GraphPad Prism data analysis software.

[2] = biological target: SMARCA2 (Homo sapiens, UniProt P51531); experiment: HiBiT assay for protein degradation, Hela SMARCA2-HiBiT cells (A series); type: cell-based; design: Hela cells were genetically modified via CRISPR/Cas9 to fuse HiBiT to the carboxy terminus of SMARCA2; host or cells: HeLa (CRISPR/Cas9 HiBiT knock-in); conditions: for DC50: read-out: SMARC A2 Hela HiBit DC50; for Dmax: read-out: SMARC A2 Hela HiBit Dmax (%);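 on SMARC A2 Hela HiBit Dmax (%): 24 h compound treatment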
Description: as §1

[3] = Hela SMARCA4-HiBiT cells, 24 hours treatment
[4] = Hela SMARCA2-HiBiT cells, 24 hours treatment

Chain of SMARCA4 (P51532 whole entry): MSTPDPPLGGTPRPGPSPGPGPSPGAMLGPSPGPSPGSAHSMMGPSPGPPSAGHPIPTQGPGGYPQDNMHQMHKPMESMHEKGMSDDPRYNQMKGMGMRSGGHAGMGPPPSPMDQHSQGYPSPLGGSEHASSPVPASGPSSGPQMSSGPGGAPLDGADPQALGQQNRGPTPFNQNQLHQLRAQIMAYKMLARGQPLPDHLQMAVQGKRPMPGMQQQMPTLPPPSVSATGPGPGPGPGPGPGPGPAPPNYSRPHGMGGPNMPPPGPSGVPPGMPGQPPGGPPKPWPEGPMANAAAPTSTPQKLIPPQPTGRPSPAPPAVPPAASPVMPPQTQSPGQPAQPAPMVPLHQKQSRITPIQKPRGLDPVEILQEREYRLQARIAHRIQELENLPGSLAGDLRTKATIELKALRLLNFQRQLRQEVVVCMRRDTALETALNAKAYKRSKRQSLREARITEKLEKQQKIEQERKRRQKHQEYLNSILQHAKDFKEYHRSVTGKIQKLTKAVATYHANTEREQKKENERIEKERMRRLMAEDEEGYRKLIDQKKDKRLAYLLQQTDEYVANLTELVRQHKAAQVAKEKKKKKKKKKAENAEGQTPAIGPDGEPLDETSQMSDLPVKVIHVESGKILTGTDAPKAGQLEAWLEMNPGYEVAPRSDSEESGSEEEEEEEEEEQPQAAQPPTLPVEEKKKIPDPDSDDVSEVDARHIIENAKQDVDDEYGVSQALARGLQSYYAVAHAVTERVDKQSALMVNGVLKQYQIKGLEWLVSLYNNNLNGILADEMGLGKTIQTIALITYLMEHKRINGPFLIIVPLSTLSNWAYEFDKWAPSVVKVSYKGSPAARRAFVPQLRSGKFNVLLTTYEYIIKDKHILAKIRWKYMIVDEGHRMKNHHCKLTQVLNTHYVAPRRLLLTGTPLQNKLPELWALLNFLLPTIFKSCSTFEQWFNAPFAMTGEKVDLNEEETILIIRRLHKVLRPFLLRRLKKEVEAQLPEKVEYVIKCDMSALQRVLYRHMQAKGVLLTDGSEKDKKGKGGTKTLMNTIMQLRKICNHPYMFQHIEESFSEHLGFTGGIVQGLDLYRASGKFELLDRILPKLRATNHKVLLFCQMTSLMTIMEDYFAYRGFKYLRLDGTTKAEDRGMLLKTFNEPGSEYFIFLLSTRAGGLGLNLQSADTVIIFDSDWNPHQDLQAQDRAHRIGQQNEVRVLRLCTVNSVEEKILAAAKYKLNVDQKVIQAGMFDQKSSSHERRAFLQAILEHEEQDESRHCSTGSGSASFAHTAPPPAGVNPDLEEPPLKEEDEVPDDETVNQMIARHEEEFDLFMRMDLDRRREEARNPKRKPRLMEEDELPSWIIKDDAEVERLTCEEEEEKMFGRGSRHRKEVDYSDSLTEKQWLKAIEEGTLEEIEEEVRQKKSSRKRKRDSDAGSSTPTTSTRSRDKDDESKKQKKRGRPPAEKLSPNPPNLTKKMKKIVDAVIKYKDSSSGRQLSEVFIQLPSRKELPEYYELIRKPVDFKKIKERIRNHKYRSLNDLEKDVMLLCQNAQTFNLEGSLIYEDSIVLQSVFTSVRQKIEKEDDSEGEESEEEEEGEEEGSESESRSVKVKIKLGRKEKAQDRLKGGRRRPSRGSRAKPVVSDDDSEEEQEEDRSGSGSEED
Chain of SMARCA2 (P51531 whole entry): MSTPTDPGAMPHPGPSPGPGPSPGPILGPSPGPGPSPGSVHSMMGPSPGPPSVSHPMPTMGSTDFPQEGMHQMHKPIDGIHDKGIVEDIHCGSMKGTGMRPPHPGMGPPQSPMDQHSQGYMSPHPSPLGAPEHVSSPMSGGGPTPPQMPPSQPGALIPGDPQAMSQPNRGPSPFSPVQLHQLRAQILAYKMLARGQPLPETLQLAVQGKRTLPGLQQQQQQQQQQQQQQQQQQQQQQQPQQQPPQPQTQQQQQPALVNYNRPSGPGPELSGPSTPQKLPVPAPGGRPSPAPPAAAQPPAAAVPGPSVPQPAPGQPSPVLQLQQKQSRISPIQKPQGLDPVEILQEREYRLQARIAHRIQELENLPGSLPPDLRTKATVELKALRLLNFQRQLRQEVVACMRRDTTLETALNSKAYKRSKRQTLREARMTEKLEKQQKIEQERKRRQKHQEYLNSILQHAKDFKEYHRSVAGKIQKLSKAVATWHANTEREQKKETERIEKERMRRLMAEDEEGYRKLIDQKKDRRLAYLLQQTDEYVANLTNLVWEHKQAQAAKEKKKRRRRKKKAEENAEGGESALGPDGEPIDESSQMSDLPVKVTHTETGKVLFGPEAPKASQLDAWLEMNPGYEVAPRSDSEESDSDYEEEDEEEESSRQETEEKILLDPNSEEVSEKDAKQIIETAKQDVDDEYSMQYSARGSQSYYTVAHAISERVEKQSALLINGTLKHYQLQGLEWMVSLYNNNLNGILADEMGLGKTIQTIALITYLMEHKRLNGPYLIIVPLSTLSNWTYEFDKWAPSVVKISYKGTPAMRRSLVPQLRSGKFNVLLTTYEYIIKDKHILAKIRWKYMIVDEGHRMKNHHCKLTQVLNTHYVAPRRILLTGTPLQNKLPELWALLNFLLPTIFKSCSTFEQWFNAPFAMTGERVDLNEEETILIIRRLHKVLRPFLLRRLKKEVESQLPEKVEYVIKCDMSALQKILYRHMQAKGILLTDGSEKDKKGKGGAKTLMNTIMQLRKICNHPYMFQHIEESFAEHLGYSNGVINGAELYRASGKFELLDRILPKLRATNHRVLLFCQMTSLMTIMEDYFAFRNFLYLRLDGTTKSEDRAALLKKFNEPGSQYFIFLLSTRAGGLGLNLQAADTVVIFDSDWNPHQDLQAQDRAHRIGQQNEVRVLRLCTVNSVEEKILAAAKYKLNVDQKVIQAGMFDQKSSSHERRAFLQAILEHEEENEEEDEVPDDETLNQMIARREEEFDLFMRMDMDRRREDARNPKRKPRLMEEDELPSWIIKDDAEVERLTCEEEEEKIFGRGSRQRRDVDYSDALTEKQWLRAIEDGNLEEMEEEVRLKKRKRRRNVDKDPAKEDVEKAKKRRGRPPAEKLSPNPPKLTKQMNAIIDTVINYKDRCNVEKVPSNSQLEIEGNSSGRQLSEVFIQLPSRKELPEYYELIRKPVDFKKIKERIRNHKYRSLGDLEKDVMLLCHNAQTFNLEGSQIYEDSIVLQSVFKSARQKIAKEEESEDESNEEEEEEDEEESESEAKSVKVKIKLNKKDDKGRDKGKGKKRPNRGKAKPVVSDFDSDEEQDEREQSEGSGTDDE

Cc1ncsc1-c1ccc([C@H](CCCCN2CCC(c3ccc4c(c3)C3(CCCC3)c3nc(=O)c5c(Cl)cccc5n3-4)CC2)NC(=O)[C@@H]2C[C@@H](O)CN2C(=O)[C@@H](NC(=O)C2(F)CC2)C(C)(C)C)cc1 [Compound A1, (2S,4R)-N-((S)-5-(4-(4′-chloro-5′-oxo-5′H-spiro[cyclopentane-1,7′-indolo[1,2-a]quinazolin]-9′-yl)piperidin-1-yl)-1-(4-(4-methylthiazol-5-yl)phenyl)pentyl)-1-((S)-2-(1-fluorocyclopropane-1-carboxamido)-3,3-dimethylbutanoyl)-4-hydroxypyrrolidine-2-carboxamide]
DC50 [1, 3]: 100 to 500 nM | Dmax [1, 3]: 70 to 90% | DC50 [2, 4]: < 100 nM | Dmax [2, 4]: > 90%

Cc1ncsc1-c1ccc([C@H](CCCCCN2CCC(c3ccc4c(c3)C3(CCCC3)c3nc(=O)c5c(Cl)cccc5n3-4)CC2)NC(=O)[C@@H]2C[C@@H](O)CN2C(=O)[C@@H](NC(=O)C2(F)CC2)C(C)(C)C)cc1 [Compound A2, (2S,4R)—N—((S)-6-(4-(4′-chloro-5′-oxo-5′H-spiro[cyclopentane-1,7′-indolo[1,2-a]quinazolin]-9′-yl)piperidin-1-yl)-1-(4-(4-methylthiazol-5-yl)phenyl)hexyl)-1-((S)-2-(1-fluorocyclopropane-1-carboxamido)-3,3-dimethylbutanoyl)-4-hydroxypyrrolidine-2-carboxamide]
DC50 [1, 3]: < 100 nM | Dmax [1, 3]: 70 to 90% | DC50 [2, 4]: < 100 nM | Dmax [2, 4]: > 90%

Cc1ncsc1-c1ccc([C@H](CCCCCN2CCC(c3ccc4c(c3)C3(CCCCC3)c3nc(=O)c5c(Cl)cccc5n3-4)CC2)NC(=O)[C@@H]2C[C@@H](O)CN2C(=O)[C@@H](NC(=O)C2(F)CC2)C(C)(C)C)cc1 [Compound A3, (2S,4R)—N—((S)-6-(4-(4′-chloro-5′-oxo-5′H-spiro[cyclohexane-1,7′-indolo[1,2-a]quinazolin]-9′-yl)piperidin-1-yl)-1-(4-(4-methylthiazol-5-yl)phenyl)hexyl)-1-((S)-2-(1-fluorocyclopropane-1-carboxamido)-3,3-dimethylbutanoyl)-4-hydroxypyrrolidine-2-carboxamide]
Dmax ([1]; HeLa): > 90% | DC50 [1, 3]: < 100 nM | Dmax ([2]; HeLa): > 90% | DC50 [2, 4]: < 100 nM

Cc1ncsc1-c1ccc([C@H](CCCCCN2CCC(c3ccc4c(c3)C3(CCCCC3)c3nc(=O)c5c(Br)cccc5n3-4)CC2)NC(=O)[C@@H]2C[C@@H](O)CN2C(=O)[C@@H](NC(=O)C2(F)CC2)C(C)(C)C)cc1 [Compound A4, (2S,4R)—N—((S)-6-(4-(4′-bromo-5′-oxo-5′H-spiro[cyclohexane-1,7′-indolo[1,2-a]quinazolin]-9′-yl)piperidin-1-yl)-1-(4-(4-methylthiazol-5-yl)phenyl)hexyl)-1-((S)-2-(1-fluorocyclopropane-1-carboxamido)-3,3-dimethylbutanoyl)-4-hydroxypyrrolidine-2-carboxamide]
Dmax ([1]; HeLa): > 90% | DC50 [1, 3]: < 100 nM | Dmax ([2]; HeLa): > 90% | DC50 [2, 4]: < 100 nM

Cc1ncsc1-c1ccc([C@H](C)NC(=O)[C@@H]2C[C@@H](O)CN2C(=O)[C@@H](NC(=O)CN2CCC(c3ccc4c(c3)C3(CCCCC3)c3nc(=O)c5c(Cl)cccc5n3-4)CC2)C(C)(C)C)cc1 [Compound A5, (2S,4R)-1-((S)-2-(2-(4-(4′-chloro-5′-oxo-5′H-spiro[cyclohexane-1,7′-indolo[1,2-a]quinazolin]-9′-yl)piperidin-1-yl)acetamido)-3,3-dimethylbutanoyl)-4-hydroxy-N—((S)-1-(4-(4-methylthiazol-5-yl)phenyl)ethyl) pyrrolidine-2-carboxamide]
Dmax ([1]; HeLa): > 90% | DC50 [1, 3]: < 100 nM | Dmax ([2]; HeLa): > 90% | DC50 [2, 4]: < 100 nM

Cc1ncsc1-c1ccc([C@H](C)NC(=O)[C@@H]2C[C@@H](O)CN2C(=O)[C@@H](NC(=O)CCN2CCC(c3ccc4c(c3)C3(CCCCC3)c3nc(=O)c5c(Cl)cccc5n3-4)CC2)C(C)(C)C)cc1 [Compound A6, (2S,4R)-1-((S)-2-(3-(4-(4′-chloro-5′-oxo-5′H-spiro[cyclohexane-1,7′-indolo[1,2-a]quinazolin]-9′-yl)piperidin-1-yl)propanamido)-3,3-dimethylbutanoyl)-4-hydroxy-N—((S)-1-(4-(4-methylthiazol-5-yl)phenyl)ethyl) pyrrolidine-2-carboxamide]
Dmax ([1]; HeLa): 50 to 69% | DC50 [1, 3]: 501 to 1000 nM | Dmax ([2]; HeLa): 70 to 90% | DC50 [2, 4]: 100 to 500 nM

Cc1ncsc1-c1ccc([C@H](C)NC(=O)[C@@H]2C[C@@H](O)CN2C(=O)[C@@H](NC(=O)CCCN2CCC(c3ccc4c(c3)C3(CCCCC3)c3nc(=O)c5c(Cl)cccc5n3-4)CC2)C(C)(C)C)cc1 [Compound A7, (2S,4R)-1-((S)-2-(4-(4-(4′-chloro-5′-oxo-5′H-spiro[cyclohexane-1,7′-indolo[1,2-a]quinazolin]-9′-yl)piperidin-1-yl)butanamido)-3,3-dimethylbutanoyl)-4-hydroxy-N—((S)-1-(4-(4-methylthiazol-5-yl)phenyl)ethyl) pyrrolidine-2-carboxamide]
Dmax ([1]; HeLa): < 50% | SMARC A4 Hela HiBit DC50(nM) [1, 3]: No fit | Dmax ([2]; HeLa): 70 to 90% | DC50 [2, 4]: 100 to 500 nM

Cc1ncsc1-c1ccc([C@H](C)NC(=O)[C@@H]2C[C@@H](O)CN2C(=O)[C@@H](NC(=O)CCCCN2CCC(c3ccc4c(c3)C3(CCCCC3)c3nc(=O)c5c(Cl)cccc5n3-4)CC2)C(C)(C)C)cc1 [Compound A8, (2S,4R)-1-((S)-2-(5-(4-(4′-chloro-5′-oxo-5′H-spiro[cyclohexane-1,7′-indolo[1,2-a]quinazolin]-9′-yl)piperidin-1-yl)pentanamido)-3,3-dimethylbutanoyl)-4-hydroxy-N—((S)-1-(4-(4-methylthiazol-5-yl)phenyl)ethyl) pyrrolidine-2-carboxamide]
Dmax ([1]; HeLa): < 50% | DC50 [1, 3]: > 1000 nM | Dmax ([2]; HeLa): 70 to 90% | DC50 [2, 4]: 100 to 500 nM

Cc1ncsc1-c1ccc([C@H](C)NC(=O)[C@@H]2C[C@@H](O)CN2C(=O)[C@@H](NC(=O)CCCCCN2CCC(c3ccc4c(c3)C3(CCCCC3)c3nc(=O)c5c(Cl)cccc5n3-4)CC2)C(C)(C)C)cc1 [Compound A9, (2S,4R)-1-((S)-2-(6-(4-(4′-chloro-5′-oxo-5′H-spiro[cyclohexane-1,7′-indolo[1,2-a]quinazolin]-9′-yl)piperidin-1-yl)hexanamido)-3,3-dimethylbutanoyl)-4-hydroxy-N—((S)-1-(4-(4-methylthiazol-5-yl)phenyl)ethyl) pyrrolidine-2-carboxamide]
Dmax ([1]; HeLa): 50 to 69% | DC50 [1, 3]: 501 to 1000 nM | Dmax ([2]; HeLa): > 90% | DC50 [2, 4]: < 100 nM

Cc1ncsc1-c1ccc([C@H](CCCCN2CCC(c3ccc4c(c3)-n3c(nc(=O)c5c(Cl)cccc53)C43CCOCC3)CC2)NC(=O)[C@@H]2C[C@@H](O)CN2C(=O)[C@@H](NC(=O)C2(F)CC2)C(C)(C)C)cc1 [Compound A10, (2S,4R)—N—((S)-5-(4-(4-chloro-5-oxo-2′,3′,5′,6′-tetrahydro-5H-spiro[indolo[1,2-a]quinazoline-7,4′-pyran]-10-yl)piperidin-1-yl)-1-(4-(4-methylthiazol-5-yl)phenyl)pentyl)-1-((S)-2-(1-fluorocyclopropane-1-carboxamido)-3,3-dimethylbutanoyl)-4-hydroxypyrrolidine-2-carboxamide]
SMARC A4 Hela HiBit DC50(nM) [1, 3]: No fit | Dmax [1, 3]: < 50% | DC50 [2, 4]: 501 to 1000 nM | Dmax [2, 4]: 50 to 69%

Cc1ncsc1-c1ccc([C@H](C)NC(=O)[C@@H]2C[C@@H](O)CN2C(=O)[C@@H](NC(=O)[C@H]2CC[C@H](CN3CCC(c4ccc5c(c4)C4(CCCCC4)c4nc(=O)c6c(Cl)cccc6n4-5)CC3)CC2)C(C)(C)C)cc1 [Compound A11, (2S,4R)-1-((S)-2-((1r,4S)-4-((4-(4′-chloro-5′-oxo-5′H-spiro[cyclohexane-1,7′-indolo[1,2-a]quinazolin]-9′-yl)piperidin-1-yl)methyl)cyclohexane-1-carboxamido)-3,3-dimethylbutanoyl)-4-hydroxy-N—((S)-1-(4-(4-methylthiazol-5-yl)phenyl)ethyl)pyrrolidine-2-carboxamide]
Dmax ([1]; HeLa): < 50% | SMARC A4 Hela HiBit DC50(nM) [1, 3]: No fit | Dmax ([2]; HeLa): 70 to 90% | DC50 [2, 4]: < 100 nM

Cc1ncsc1-c1ccc([C@H](C)NC(=O)[C@@H]2C[C@@H](O)CN2C(=O)[C@@H](NC(=O)[C@H]2CC[C@H](CN3CC(N4CCC(c5ccc6c(c5)C5(CCCCC5)c5nc(=O)c7c(Cl)cccc7n5-6)CC4)C3)CC2)C(C)(C)C)cc1 [Compound A12, (2S,4R)-1-((S)-2-((1r,4S)-4-((3-(4-(4′-chloro-5′-oxo-5′H-spiro[cyclohexane-1,7′-indolo[1,2-a]quinazolin]-9′-yl)piperidin-1-yl)azetidin-1-yl)methyl)cyclohexane-1-carboxamido)-3,3-dimethylbutanoyl)-4-hydroxy-N—((S)-1-(4-(4-methylthiazol-5-yl)phenyl)ethyl)pyrrolidine-2-carboxamide]
DC50 [1, 3]: 501 to 1000 nM | Dmax [1, 3]: 50 to 69% | DC50 [2, 4]: 100 to 500 nM | Dmax [2, 4]: 70 to 90%

From US20260092071A1, “COMPOUNDS AND COMPOSITIONS AS SMARCA2/4 DEGRADERS AND USES THEREOF” (REGENTS OF THE UNIVERSITY OF MICHIGAN, priority 2022, published 2026)
